The test has as its system L1210 leukemia ip in BDF1 mice, survival T/C. Briefly: NCI In Vivo Anticancer Drug Screen. Data for tumor model L1210 Leukemia (intraperitoneal) in B6D2F1 (BDF1) mice. To be noted: endpoint: mean survival time, higher = longer survival. In a few lines: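 Antitumor effect is assessed in tumor-bearing animals. Survival in the compound arm is compared with a vehicle-dosed control arm and expressed as their quotient.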

[1] abbreviates: dose: 100.0 mg/kg/injection, schedule: Q01DX001 (ip), vehicle: carboxymethylcellulose (CMC).
Setting [2] is: dose: 200.0 mg/kg/injection, schedule: Q01DX001 (ip), vehicle: carboxymethylcellulose (CMC).
[3] abbreviates: dose: 400.0 mg/kg/injection, schedule: Q01DX001 (ip), vehicle: carboxymethylcellulose (CMC).
Setting [4] is: dose: 100.0 mg/kg/injection, schedule: Q01DX009 (ip), vehicle: Klucel (hydroxypropylcellulose) (HPC).
The mark [5] stands for this setting: dose: 100.0 mg/kg/injection, schedule: Q04DX003 (ip), vehicle: Klucel (hydroxypropylcellulose) (HPC).
[6] abbreviates: dose: 200.0 mg/kg/injection, schedule: Q01DX009 (ip), vehicle: Klucel (hydroxypropylcellulose) (HPC).
Setting [7] is: dose: 200.0 mg/kg/injection, schedule: Q04DX003 (ip), vehicle: Klucel (hydroxypropylcellulose) (HPC).
Where [8] appears, read: dose: 400.0 mg/kg/injection, schedule: Q04DX003 (ip), vehicle: Klucel (hydroxypropylcellulose) (HPC).
[9] abbreviates: dose: 100.0 mg/kg/injection, schedule: Q04DX003 (ip), vehicle: saline with Tween-80.
Where [10] appears, read: dose: 200.0 mg/kg/injection, schedule: Q04DX003 (ip), vehicle: saline with Tween-80.
Where [11] appears, read: dose: 25.0 mg/kg/injection, schedule: Q04DX003 (ip), vehicle: saline.
Setting [12] is: dose: 50.0 mg/kg/injection, schedule: Q04DX003 (ip), vehicle: saline.
[13] abbreviates: dose: 100.0 mg/kg/injection, schedule: Q01DX009 (ip), vehicle: saline.
Setting [14] is: dose: 100.0 mg/kg/injection, schedule: Q04DX003 (ip), vehicle: saline.
The mark [15] stands for this setting: dose: 200.0 mg/kg/injection, schedule: Q01DX009 (ip), vehicle: saline.
[16] abbreviates: dose: 200.0 mg/kg/injection, schedule: Q04DX003 (ip), vehicle: saline.
[17] abbreviates: dose: 400.0 mg/kg/injection, schedule: Q01DX009 (ip), vehicle: saline.
The mark [18] stands for this setting: dose: 400.0 mg/kg/injection, schedule: Q04DX003 (ip), vehicle: saline.
Setting [19] is: dose: 100.0 mg/kg/injection, schedule: Q01DX001 (ip), vehicle: saline.
The mark [20] stands for this setting: dose: 50.0 mg/kg/injection, schedule: Q01DX009 (ip), vehicle: saline with Tween-80.
The mark [21] stands for this setting: dose: 100.0 mg/kg/injection, schedule: Q01DX009 (ip), vehicle: saline with Tween-80.
The mark [22] stands for this setting: dose: 200.0 mg/kg/injection, schedule: Q01DX009 (ip), vehicle: saline with Tween-80.
Where [23] appears, read: dose: 400.0 mg/kg/injection, schedule: Q01DX009 (ip), vehicle: saline with Tween-80.

The text below walks through data of PubChem BioAssay AID248 (DTP/NCI, 2004).

Several values for one entry are separate records, joined by “and”; a condition that tells them apart may be missing. Equal entries are not always repeated. Toxic doses and inconclusive results are not listed.

As to `Cc1nnc(NS(=O)(=O)c2ccc(N=Nc3c(N)n(C)c(=O)n(C)c3=O)cc2)s1`, the T/C is 101 % of control under setting [1], 95 % of control under setting [2] and 89 % of control under setting [3].

With `CCCC(C)Cc1ccc(C(=O)O)cc1` (stereo not given), the T/C by setting is: under setting [4], 95 % of control; under setting [5], 97 % of control; under setting [6], 104 % of control; under setting [7], 103 % of control; under setting [8], 107 % of control.

`Cc1[nH]c2ccccc2c1C1Cc2ccccc2N1` (stereo not given): the T/C is 97 % of control and 103 % of control (dose: 100.0 mg/kg/injection, schedule: Q01DX001 (ip), vehicle: other); 101 % of control (dose: 100.0 mg/kg/injection, schedule: Q01DX009 (ip), vehicle: other); 100 % of control and 90 % of control (dose: 200.0 mg/kg/injection, schedule: Q01DX001 (ip), vehicle: other); 101 % of control (dose: 200.0 mg/kg/injection, schedule: Q01DX009 (ip), vehicle: other); 94 % of control (dose: 400.0 mg/kg/injection, schedule: Q01DX001 (ip), vehicle: other); 107 % of control (dose: 400.0 mg/kg/injection, schedule: Q01DX009 (ip), vehicle: other).

`CCCCCCCCCCCCN1CCCC(O)C1` (stereo not given): the T/C is 93 % of control under setting [9] and 88 % of control under setting [10].

In the case of `CN(C)c1nc2ccccc2o1`, the T/C is, setting by setting: under setting [1], 94 % of control; under setting [2], 102 % of control; under setting [3], 105 % of control.

Regarding `CNCC(O)c1ccc(O)cc1` (stereo not given), the T/C was 96 % of control (dose: 25.0 mg/kg/injection, schedule: Q01DX009 (ip), vehicle: saline); 111 % of control under setting [11]; 105 % of control (dose: 50.0 mg/kg/injection, schedule: Q01DX009 (ip), vehicle: saline); 101 % of control under setting [12]; 98 % of control under setting [13]; 90 % of control and 101 % of control under setting [14]. In addition, the T/C is 98 % of control under setting [15]; 88 % of control and 104 % of control under setting [16]; 100 % of control under setting [17]; 98 % of control and 120 % of control under setting [18].

For the compound `C[N+](C)(C)CC1C2C=CC(C2)C1CO` (stereo not given), the T/C under setting [14] is 110 % of control, the T/C under setting [16] was 107 % of control and the T/C under setting [18] is 100 % of control.

In the case of `CCc1ccc(NS(=O)(=O)c2c(C)cc(C)cc2C)cc1`, the T/C reads like this: under setting [4], 101 % of control; under setting [6], 105 % of control; (dose: 400.0 mg/kg/injection, schedule: Q01DX009 (ip), vehicle: Klucel (hydroxypropylcellulose) (HPC)) 97 % of control.

For the compound `CCOC(=O)Nc1cc(NC(C)CCCN(CC)CC)c2nc(-c3ccccc3)c(-c3ccccc3)nc2n1` (stereo not given), the T/C by setting is: (dose: 50.0 mg/kg/injection, schedule: Q01DX001 (ip), vehicle: saline) 93 % of control; under setting [19], 90 % of control.

In the case of `ClCC[N-]CC[N-]CCCl.ClCC[N-]CC[N-]CCCl.[O-][Cl+3]([O-])([O-])O.[Zn+2]`, the T/C (dose: 5.0 mg/kg/injection, schedule: Q01DX009 (ip), vehicle: Klucel (hydroxypropylcellulose) (HPC)) was 102 % of control; the T/C (dose: 5.0 mg/kg/injection, schedule: Q03DX003 (ip), vehicle: saline) is 95 % of control; the T/C (dose: 5.0 mg/kg/injection, schedule: Q## X003 (ip), vehicle: saline) was 95 % of control; the T/C (dose: 9.0 mg/kg/injection, schedule: Q01DX009 (ip), vehicle: Klucel (hydroxypropylcellulose) (HPC)) is 94 % of control; the T/C (dose: 10.0 mg/kg/injection, schedule: Q01DX009 (ip), vehicle: Klucel (hydroxypropylcellulose) (HPC)) was 97 % of control; the T/C (dose: 10.0 mg/kg/injection, schedule: Q03DX003 (ip), vehicle: saline) is 104 % of control. For the same compound, the T/C (dose: 10.0 mg/kg/injection, schedule: Q## X003 (ip), vehicle: saline) was 104 % of control; the T/C (dose: 18.0 mg/kg/injection, schedule: Q01DX009 (ip), vehicle: Klucel (hydroxypropylcellulose) (HPC)) was 100 % of control; the T/C (dose: 20.0 mg/kg/injection, schedule: Q01DX009 (ip), vehicle: Klucel (hydroxypropylcellulose) (HPC)) is 116 % of control; the T/C (dose: 20.0 mg/kg/injection, schedule: Q03DX003 (ip), vehicle: saline) is 121 % of control; the T/C (dose: 20.0 mg/kg/injection, schedule: Q## X003 (ip), vehicle: saline) was 121 % of control; the T/C (dose: 40.0 mg/kg/injection, schedule: Q03DX003 (ip), vehicle: saline) was 161 % of control. Further, the T/C (dose: 40.0 mg/kg/injection, schedule: Q## X003 (ip), vehicle: saline) is 161 % of control and the T/C (dose: 80.0 mg/kg/injection, schedule: Q03DX003 (ip), vehicle: saline) is 80 % of control.

Turning to `CC(S(C)(=O)=O)(S(C)(=O)=O)S(C)(=O)=O`, the T/C runs as follows: (dose: 75.0 mg/kg/injection, schedule: Q01DX001 (ip), vehicle: saline with Tween-80) 96 % of control; (dose: 150.0 mg/kg/injection, schedule: Q01DX001 (ip), vehicle: saline with Tween-80) 96 % of control; (dose: 300.0 mg/kg/injection, schedule: Q01DX001 (ip), vehicle: saline with Tween-80) 107 % of control.

As for `O=C(O)c1ccccc1C(=O)OO`, the T/C by setting is: under setting [20], 97 % of control; under setting [21], 97 % of control; under setting [22], 97 % of control.

Turning to `O=C1CCC(=O)N1CC(O)COc1ccc(Cl)cc1` (stereo not given), the T/C under setting [21] was 96 % of control, the T/C under setting [22] is 101 % of control and the T/C under setting [23] was 104 % of control.

For the compound `O=C(NC(=S)Nc1cccc(O)c1)c1ccco1`, the T/C was 98 % of control under setting [21]; 104 % of control under setting [9]; 115 % of control under setting [22]; 107 % of control under setting [10]; 95 % of control under setting [23]; 102 % of control (dose: 400.0 mg/kg/injection, schedule: Q04DX003 (ip), vehicle: saline with Tween-80).

Take `C[N+](C)(C)C1CS(=O)C1` (stereo not given): the T/C was 96 % of control (dose: 12.5 mg/kg/injection, schedule: Q04DX003 (ip), vehicle: saline); 112 % of control under setting [11]; 87 % of control under setting [12].

Turning to `C/C=C1\SC(=S)NC1=O`, the T/C (dose: 20.0 mg/kg/injection, schedule: Q01DX001 (ip), vehicle: other) was 100 % of control; the T/C (dose: 40.0 mg/kg/injection, schedule: Q01DX001 (ip), vehicle: other) is 100 % of control; the T/C (dose: 80.0 mg/kg/injection, schedule: Q01DX001 (ip), vehicle: other) is 101 % of control.

For `CC1CCC2C(C1)N(C(C)C)OC2(C)C` (stereo not given), the T/C is 104 % of control under setting [20], 98 % of control under setting [21], 108 % of control under setting [9] and 102 % of control under setting [10].

With `Nc1ccc(C(=O)O)cc1`, the T/C reads like this: under setting [5], 96 % of control; under setting [7], 106 % of control; under setting [8], 113 % of control.

Consider `CCOCC(=O)CC1CCCC1`, for which the T/C runs as follows: under setting [20], 103 % of control; under setting [21], 100 % of control; under setting [22], 95 % of control.

In the case of `C[S+](C)CCCN`, the T/C under setting [19] was 105 % of control; the T/C under setting [13] is 94 % of control; the T/C under setting [14] was 103 % of control; the T/C (dose: 200.0 mg/kg/injection, schedule: Q01DX001 (ip), vehicle: saline) is 110 % of control; the T/C under setting [15] was 109 % of control; the T/C under setting [16] was 106 % of control. The T/C was 105 % of control (dose: 400.0 mg/kg/injection, schedule: Q01DX001 (ip), vehicle: saline); 106 % of control under setting [17]; 98 % of control under setting [18].

As to `OC(C(F)(F)F)C(F)(F)Cl` (stereo not given), the T/C under setting [19] was 104 % of control.

Turning to `O=C1CCCC/C1=C1/C(=O)Nc2ccccc21`, the T/C under setting [20] is 104 % of control, the T/C under setting [21] is 118 % of control and the T/C under setting [22] was 110 % of control.
